Reference: ChEMBL document CHEMBL3272192, “Thyroxine analogues. 23. Quantitative structure-activity correlation studies of in vivo and in vitro thyromimetic activities” (1977)

Tests used:
Rattus norvegicus [1] = assay: In vivo antigoiter activity in rat; type: functional
Rattus norvegicus [2] = species on record: Rattus norvegicus; assay: Displacement of radiolabelled L-T3 from thyroid hormone receptor in intact rat hepatic nuclei relative to T3
[3] = biological target: T1, Thyroxine-binding globulin (Homo sapiens) (UniProt P05543); assay: Binding affinity to thyroxine binding globulin (unknown origin) relative to T4
T1 sequence (whole entry): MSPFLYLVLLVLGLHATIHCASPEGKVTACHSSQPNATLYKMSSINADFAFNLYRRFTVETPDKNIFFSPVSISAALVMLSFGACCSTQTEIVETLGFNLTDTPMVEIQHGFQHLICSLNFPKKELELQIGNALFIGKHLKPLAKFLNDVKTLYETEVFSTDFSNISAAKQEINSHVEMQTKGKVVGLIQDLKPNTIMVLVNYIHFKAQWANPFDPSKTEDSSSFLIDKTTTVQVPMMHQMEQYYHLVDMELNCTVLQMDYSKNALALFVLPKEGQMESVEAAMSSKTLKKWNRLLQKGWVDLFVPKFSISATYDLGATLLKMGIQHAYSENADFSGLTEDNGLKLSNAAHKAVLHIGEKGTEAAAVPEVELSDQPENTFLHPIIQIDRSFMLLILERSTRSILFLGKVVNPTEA

SMILES | Activity (Rattus norvegicus [1]) [%] | log(%) (Rattus norvegicus [1]) | RBA (Rattus norvegicus [2]) [%] | log(%) (Rattus norvegicus [2]) | RBA [3] [%] | log(%) [3]
NC(Cc1cc(I)c(Oc2ccc(O)cc2)c(I)c1)C(=O)O (centres undefined) | 0.81 | -0.092 | 0.3 | -0.523 | 0.07 | -1.16
CC(C)Cc1cc(Oc2c(I)cc(CC(N)C(=O)O)cc2I)ccc1O (centres undefined) | 7.74 | 0.889 | 20 | 1.3 | 0.1 | -1
CC(C)(C)c1cc(Oc2c(I)cc(CC(N)C(=O)O)cc2I)ccc1O (centres undefined) | 21.7 | 1.336 | 38.5 | 1.59 | 0.67 | -0.174
CC(C)c1cc(Oc2c(I)cc(CC(N)C(=O)O)cc2I)ccc1O (centres undefined) | 142.1 | 2.153 | 100 | 2 | 3.53 | 0.548
